Measured values from patent US7659277B2, “Ubiquitin ligase inhibitors and methods related thereto” (Proteologies, Ltd., priority 2003, dated 2010).

Target: T1, POSH (Homo sapiens, UniProt Q7Z6J0)
T1 construct: GST-POSH lot NB81/p.118 3.6 mg/ml; fused on or other part: GST tag, used for detection with anti-GST XL665
T1 sequence (Q7Z6J0 1-269 limits assumed): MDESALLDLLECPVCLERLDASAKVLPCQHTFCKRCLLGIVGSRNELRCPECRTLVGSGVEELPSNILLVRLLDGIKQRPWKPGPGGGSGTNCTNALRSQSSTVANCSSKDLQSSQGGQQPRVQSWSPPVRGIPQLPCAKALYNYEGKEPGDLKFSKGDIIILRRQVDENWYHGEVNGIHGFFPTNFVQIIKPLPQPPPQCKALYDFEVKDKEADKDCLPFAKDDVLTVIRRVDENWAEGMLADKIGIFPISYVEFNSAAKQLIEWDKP
Assay: IC50 assay procedure: GST-POSH auto-ubiquitination, homogeneous time-resolved fluorescence (Ub-cryptate / anti-GST XL665)
Assay type: biochemical
Conditions: ubiquitin ligase activity of POSH; GST-POSH 33 nM, 30 min preincubation
Source text: In certain preferred embodiments, agents that inhibit (or promote) the ubiquitin ligase activity of a ubiquitin ligase, such as POSH, may be identified using a homogenous time resolved fluorescence assay. Such an assay may employ a GST fused to the RING subunit of a ubiquitin ligase (e.g. POSH). Two flurophore-conjugated detection reagents are also used: anti-GSTXL665 and europium cryptate labeled ubiqutin. The ubiqutination of the ubiquitin ligase by ubiqutin cryptate and binding of the anti-GST tagged XL665 brings the fluorophores into close proximity allowing FRET reaction to occur. Accordingly, FRET serves as a measurement of ubiquitination of the ubiquitin ligase. An enzymatic system may be set up to provide activated ubiquitin, e.g., by providing ubiquitin, an E1 and an E2. Compounds that will not allow the FRET reaction are considered to be inhibitors.
Step 3: establish IC 50 value measurements.
Experimental Protocols: 1. HTS Screening Assay Procedure • Microplates 10109D to 10114D compounds at 1 mM. • (Controls in column 1). • All compounds were perchase from ChemBridge corporation: ChemBridge corporation 16981 Via Tazon, Suite G San Diego, Calif. 92127 a. Microplates Labeling • Put labels to 6 PS U-bottom clear microplate. • Put labels to 18 black microplates (triplicats). b. Microplates Preparation • Put 100 μl GST-POSH at 33 nM in wells of the clear PS U-bottom microplates (exept wells A1-D1). • Negative control: place 100 μl dH2O in wells A1-D1. • (Positive control: place 100 μl GST-POSH at 33 nM in wells E1-H1). • Put 8 μl enzymes solution ×4 to black microplates (column 1 to 11). c. Incubation of E3 with Compounds • Transfer 5 μl of compounds (at 1 mM) to the microplates containing 100 μl GST-POSH. • Add 5 μl of DMSO to controls column 1. • Incubation 30 minutes at RT. d. Enzymatic (Ubiquitination) and Final Steps • Distribution of (triplicate) 3×23 μl incubated compounds into 3 black microplates containing enzymatic solution (on splitting apparatus). • Incubation 30 minutes at 37° C. • Addition of 8 μl EDTA 0.5 M. • Incubation 15 (at least) minutes at RT. • Addition of 30 μl GST XL 665 in reconstitution buffer. • Incubation 45 (at least) minutes at RT. • Reading fluorescence. • Record results in computer. • Put sealing foil back on original and diluted microplates and keep at −70° C. • Always the plates must be closed with lids during each step. 2. […] Microplates Labeling • Put labels to 4 clear PP clear microplate (18.2 μM, 9.1 uM, 1.82 uM, 910 nM,). • Put labels to 5 clear PS U-bottom clear microplate 4.44 μM, 909, 444, 91 and 44 nM) • Put labels to 15 black microplates (triplicates). f. Original Microplate Dilutions • Put DMSO 40 μl to (18.2 μM, 1.82 uM plates) and 20 ul to (9.1 uM, 910 nM plates. • Mix by pipetation the original microplate (3× up and down 45 μl). • Transfer 10 μl of compounds from the original microplate (at 91 μM) to the next microplate (=18.2 μM) on splitting apparatus. • Mix by pipetation the 18.2 uM microplate (3× up and down 45 μl). • Transfer 20 μl of compounds from the 18.2 uM microplate to the next microplate (=9.1 μM) on splitting apparatus. • Mix by pipetation the 9.1 uM microplate (3× up and down 45 μl). • Transfer 10 μl of compounds from the 9.1 uM microplate to the next microplate (=1.82 μM) on splitting apparatus. • Mix by pipetation the 1.82 uM microplate (3× up and down 45 μl). • Transfer 20 μl of compounds from the 1.82 uM microplate to the next microplate (=910 nM) on splitting apparatus • Mix by pipetation. g. Microplates Preparation • Put 123 μl GST-POSH at 33 nM in wells of the 5 clear PS U-bottom clear microplates. • Positive control: place 123 μl GST-POSH at 33 nM in well A12-h12 13 μl DMSO. • Negative control: place 123 μl dH2O in well B1 and 13 μl DMSO. • Put 8 μl enzymes solution ×4 to 15 black microplates. • Controls: put 8 μl enzymes solution ×4 to wells A1 to F1. h. […]

SMILES	IC50
Oc1c(Br)cc(Br)cc1/C=N/c1ccc(Br)cn1 [Compound 61]	700 nM
Cc1cc(C)c(O)c(/N=C/c2c(O)ccc3ccccc23)c1 [Compound 65]	1000 nM
O=[N+]([O-])c1ccc(-c2ccc(/N=C/c3c(O)ccc4ccccc34)cc2)cc1 [Compound 60]	1000 nM
Oc1c(Br)cc(Br)cc1/C=N/c1cccc2nsnc12 [Compound 112]	700 nM
COc1cc(/C=C2\SC(=O)NC2=O)ccc1OCc1ccc(Cl)cc1Cl [Compound 34]	1000 nM
C=CCN1C(=O)/C(=C/c2c3ccccc3cc3ccccc23)SC1=S [Compound 109]	500 nM
O=C1N=C(c2ccccc2)S/C1=C/c1ccc2ccccc2c1 [Compound 41]	1000 nM
COc1ccc(N2C(=O)NC(=O)/C(=C\C=C\c3ccccc3)C2=O)cc1 [Compound 8]	500 nM
COc1cc(N/C=C2/C(=O)NC(=S)N(c3ccc(F)cc3)C2=O)cc(OC)c1 [Compound 17]	700 nM
O=C1\C(=C/C=C/C=C/Nc2ccccc2)SC(=S)N1c1ccccc1 [Compound 24]	1000 nM
Oc1ccc2ccccc2c1/C=N/c1ncc(Br)cc1Br [Compound 66]	900 nM
CC(C)Oc1ccc(/C=C2/SC(=S)NC2=O)cc1 [Compound 26]	3000 nM
O=c1oc2cc(O)ccc2cc1-c1csc(-c2ccc(Cl)cc2)n1 [Compound 40]	1000 nM
COC(=O)c1ccc(N2C(=O)c3cccc(N)c3C2=O)cc1 [Compound 21]	800 nM
O=C1NC(=O)C(=Cc2ccc(-c3cc(Cl)ccc3Cl)o2)C(=O)N1 [Compound 1]	200 nM
CN(C)c1ccc(/C=C2\SC(=S)N(C3CCS(=O)(=O)C3)C2=O)cc1 (centres unmarked) [Compound 110]	600 nM
CC(=C\c1ccccc1)/C=C1/SC(=N)NC1=O [Compound 31]	900 nM
Oc1c(Cl)cc(Cl)cc1/C=N/c1ccc(-c2nc3ccccc3[nH]2)cc1 [Compound 63]	600 nM
COc1ccc(CNc2cccc(N(C)C)c2)cc1 [Compound 106]	900 nM
CCOC(=O)c1c(/N=C/c2cc(Br)ccc2O)sc2c1CCCC2 [Compound 68]	1000 nM
O=c1nc(-c2ccc(Br)cc2)cc(-c2ccc([N+](=O)[O-])cc2)[nH]1 [Compound 84]	300 nM

SMILES	IC50
COc1ccccc1N1C(=O)NC(=O)/C(=C\C=C\c2ccccc2)C1=O [Compound 10]	1000 nM
Cc1cc(/N=C/c2c(O)ccc3ccccc23)no1 [Compound 111]	1000 nM
O=[N+]([O-])c1ccc(Cl)cc1CN1CCN(CCO)CC1 [Compound 82]	300 nM
O=c1/c(=C/c2cccc([N+](=O)[O-])c2O)sc2nc3ccccc3n12 [Compound 51]	700 nM
Cc1ccc(/N=C/c2cccc(O)c2O)cc1C [Compound 56]	300 nM
C=CCN1C(=O)NC(=O)/C(=C\c2ccccc2)C1=O [Compound 2]	700 nM
CCCCCCOc1ccc(C=C2C(=O)NC(=S)NC2=O)cc1 [Compound 15]	500 nM
O=C1/C(=C\c2ccc(Cl)c([N+](=O)[O-])c2)Sc2ccccc21 [Compound 50]	100 nM
O=C1NC(=O)/C(=C\c2ccc(-c3ccc(F)cc3)o2)S1 [Compound 108]	900 nM
Cc1cc([N+](=O)[O-])ccc1/N=C/c1ccc[nH]1 [Compound 70]	600 nM
N=C1NC(=O)/C(=C\c2ccc(-c3ccc(I)cc3)o2)S1 [Compound 29]	700 nM
Oc1c(Br)cc(Cl)cc1/C=N/c1ccccn1 [Compound 64]	900 nM
O=C1/C(=C\c2cccc([N+](=O)[O-])c2)Sc2ccccc21 [Compound 52]	1300 nM
O=C1C(=Cc2ccco2)C(=O)N(c2ccccc2)C(=S)N1c1ccccc1 [Compound 13]	1000 nM
COc1ccc(/C=C2\C(=O)NC(=S)N(c3ccccc3)C2=O)cc1 [Compound 11]	10000 nM
O=c1nc(C(F)(F)F)cc(/C=C/c2ccc(-c3ccc(Br)cc3)o2)[nH]1 [Compound 39]	1000 nM
O=C1N=C(c2ccccc2)S/C1=C/c1ccc(-c2cccc([N+](=O)[O-])c2)o1 [Compound 36]	1000 nM
COc1ccc(/C=C/C(=O)C2C(=O)CCC2=O)cc1OC [Compound 113]	400 nM
Oc1c(Br)cc(Br)cc1/C=N/c1nc2ccccc2s1 [Compound 62]	700 nM
Cc1ccc(/C=N/c2ccc(Cl)cc2)o1 [Compound 74]	1000 nM
Cc1ccc2nsnc2c1/N=C/c1c(O)ccc2ccccc12 [Compound 53]	500 nM

SMILES	IC50
O=C1NC(=S)N(c2ccccc2)C(=O)/C1=C\c1c(Cl)cccc1Cl [Compound 6]	800 nM
Cc1cc(I)ccc1NCn1nnc2ccccc21 [Compound 105]	800 nM
CC(C)(C)c1ccc(O)c(/N=C/C=C/c2cccc([N+](=O)[O-])c2)c1 [Compound 59]	500 nM
COc1cc(C=C2C(=O)N(C)C(=S)N(C)C2=O)ccc1O [Compound 9]	10000 nM
Oc1c(Br)cc(Cl)cc1/C=N/c1ccccc1Br [Compound 58]	800 nM
Cc1ccc(/C=N/c2ccc(C(N)=O)cc2)o1 [Compound 73]	1500 nM
Oc1ccc(/N=C/c2cccs2)cc1-c1nc2ccccc2s1 [Compound 71]	800 nM
O=C1C=CC(=O)N1c1ccc(OC(F)(F)C(F)F)c(N2C(=O)C=CC2=O)c1 [Compound 20]	900 nM
O=[N+]([O-])c1ccc(CN2CCN(c3cccc(Cl)c3)CC2)o1 [Compound 80]	500 nM
COc1ccc(/C=N/c2ccc(Nc3ccccc3)cc2)c2ccccc12 [Compound 55]	500 nM
CC(=O)Nc1ccc(-c2cc3ccccn3c2)cc1 [Compound 78]	900 nM
O=C1NC(=O)N(c2ccc(Br)cc2)C(=O)/C1=C/c1ccc(O)cc1 [Compound 5]	300 nM
O=C1S/C(=C/c2ccc(-c3ccc([N+](=O)[O-])cc3Cl)o2)C(=O)N1c1ccccc1 [Compound 27]	700 nM
O=C(C(Cl)Cl)N1CCN(c2ccc([N+](=O)[O-])cc2)CC1 [Compound 79]	900 nM
O=C1C(=Cc2ccc(-c3ccc(Br)cc3)o2)C(=O)c2ccccc21 [Compound 38]	400 nM
CN(C)c1ccc(/C=C2\C(=O)N(c3ccc([N+](=O)[O-])cc3)N=C2N2CCOCC2)cc1 [Compound 42]	5000 nM
O=C(O)c1ccc(-c2ccc(/C=c3\sc4nc5ccccc5n4c3=O)o2)cc1 [Compound 28]	700 nM
OCc1cccc(/N=C/c2cccc(O)c2O)c1 [Compound 57]	300 nM
Cc1c(C(=O)/C=C/c2cccs2)c2cc(O)ccc2n1C [Compound 76]	400 nM
COc1ccc(CC(C)NCc2ccccc2Cl)cc1 (centres unmarked) [Compound 107]	1000 nM
